Activity and viability data for 19 compounds are collected here from paper PMC12040169 (PLOS Biology, 2025).

One may read the viability as a read-out of living cells in per cent, often relative to untreated cells.

Data set [1] concerns T1, C. trachomatis L2/434/Bu expressing GFP (CTL2-GFP).
T1 construct: L2/434/Bu GFP intracellular growth in HeLa cells
Briefly: microbe, parasite or virus in culture. The following applies: Chlamydia trachomatis, HeLa, 28.5 h; total inclusion area; read-out: % of control remaining. Set-up: C. trachomatis total inclusion area by high-content imaging, normalised to DMSO. The source says:
We screened a library of 36,785 small molecules displaying drug-like properties and covering a wide chemical space (Fig 1A and S2A Data). In this process, we also complemented the assay described above with an imaging-based readout (Fig 1B). After measurements of bulk GFP and resorufin fluorescence, cells were fixed, stained with the DNA dye Hoechst, and imaged at a high-content imaging platform to detect chlamydial inclusions (GFP) and host cell nuclei (Hoechst). The total area and number of inclusions in individual wells and the number of nuclei then served as additional proxies for chlamydial growth and host cell viability. […] MICs were calculated as described above.

Data set [2] concerns T2, CTL2-GFP (C. trachomatis L2/434/Bu, GFP-expressing).
T2 construct: L2/434/Bu, GFP-expressing
The data set can be described thus: microbe, parasite or virus in culture. Set-up: Intracellular C. trachomatis growth in HeLa cells, bulk GFP fluorescence relative to DMSO. Conditions: Chlamydia trachomatis, HeLa, 28.5 h; bulk GFP, mean of 2; read-out: % of control remaining. The method, then:
MICs were calculated as described above.

A further data set is described as follows: in vitro. Set-up: Viability of infected HeLa host cells, resazurin conversion, bulk resorufin fluorescence relative to DMSO. Conditions: human, hela cells; bulk resorufin, mean of 2.

As to `CCc1nnc(NS(=O)(=O)c2ccc(NC(=S)NC(=O)c3ccco3)cc2)s1` [CBK018917], in data set [1], the activity at 1 µM turned out to be 79.7%, the activity at 5 µM is 57% and the activity at 10 µM turned out to be 24.2%. In addition, in data set [2], the activity at 1 µM stood at 117%, the activity at 5 µM was 56.1% and the activity at 10 µM amounted to 18.8%. Besides, in the data set “in vitro”, the viability at 28.5 h, 1 µM amounted to 100%; the viability at 28.5 h, 5 µM is 94.7%; the viability at 28.5 h, 10 µM came to 115%.
For `COc1ccc(CCN(CCc2ccccc2)CC(O)COc2cccc3c2CCCC3)cc1` (stereo not drawn) [CBK024506T], in data set [1], the activity at 1 µM is 99%, the activity at 5 µM was 114% and the activity at 10 µM turned out to be 55.3%. Further, in data set [2], the activity at 1 µM was 108%, the activity at 5 µM was 104% and the activity at 10 µM was 51%. Also, in “in vitro”, the viability at 28.5 h, 1 µM was determined as 97.4%; the viability at 28.5 h, 5 µM was 95.2%; the viability at 28.5 h, 10 µM worked out at 101%.
With `Cc1nn(C)c(N2CCN(C(=O)OC(C)(C)C)CC2)c1N` [CBK034182], in data set [1], the activity at 1 µM stood at 122%, the activity at 5 µM was 92% and the activity at 10 µM was determined as 53.1%. In addition, in data set [2], the activity at 1 µM worked out at 120%, the activity at 5 µM was determined as 91.7% and the activity at 10 µM was 38.1%. Moreover, in the data set “in vitro”, the viability at 28.5 h, 1 µM is 90.6%; the viability at 28.5 h, 5 µM came out at 94.8%; the viability at 28.5 h, 10 µM stood at 88.5%.
In the case of `CCCCCC(=O)Nc1ccc(S(=O)(=O)Nc2nnc(CC)s2)cc1` [CBK045478], in data set [1], the activity at 1 µM amounted to 122%, the activity at 5 µM worked out at 53% and the activity at 10 µM was 48.9%. Further, in data set [2], the activity at 1 µM was determined as 137%, the activity at 5 µM came to 47.1% and the activity at 10 µM was 29.6%. Also, in “in vitro”, the viability at 28.5 h, 1 µM was 94.8%; the viability at 28.5 h, 5 µM amounted to 93.6%; the viability at 28.5 h, 10 µM is 91.2%.
In the case of `CC(=O)Nc1ccc(S(=O)(=O)Nc2ccc(C(=O)Nc3ccc(F)cc3)cc2)cc1` [CBK050401], in data set [1], the activity at 1 µM is 114%, the activity at 5 µM was determined as 48.5% and the activity at 10 µM worked out at 30%. Further, in data set [2], the activity at 1 µM is 101%, the activity at 5 µM is 31.9% and the activity at 10 µM was determined as 14.2%. Moreover, in the data set “in vitro”, the viability at 28.5 h, 1 µM amounted to 93.4%; the viability at 28.5 h, 5 µM is 87.7%; the viability at 28.5 h, 10 µM worked out at 91.8%.
Regarding `CN1CCN(c2ccc3ccn(S(=O)(=O)c4ccc([N+](=O)[O-])cc4)c3n2)CC1` [CBK070757C], in data set [1], the activity at 1 µM amounted to 106%, the activity at 5 µM came out at 64% and the activity at 10 µM worked out at 24.6%. In data set [2], the activity at 1 µM came to 140%, the activity at 5 µM was determined as 89.2% and the activity at 10 µM stood at 46.7%. In “in vitro”, the viability at 28.5 h, 1 µM came out at 89.6%; the viability at 28.5 h, 5 µM worked out at 87.7%; the viability at 28.5 h, 10 µM turned out to be 86%.
With `N#Cc1c(Nc2cccc(C(F)(F)F)c2)sc(C(=O)c2ccc3c(c2)OCO3)c1N` [CBK074399], in data set [1], the activity at 1 µM was 2.52%, the activity at 5 µM amounted to 2.64% and the activity at 10 µM was 6.62%. In data set [2], the activity at 1 µM turned out to be 10.1%, the activity at 5 µM is 11.2% and the activity at 10 µM stood at 17.7%. Besides, in the data set “in vitro”, the viability at 28.5 h, 1 µM stood at 87.7%; the viability at 28.5 h, 5 µM came out at 85.9%; the viability at 28.5 h, 10 µM stood at 81.1%.
Turning to `Cc1ccc(OCC(O)CN2CCN(c3nc(-c4ccccc4)ns3)CC2)c([N+](=O)[O-])c1` (stereo not drawn) [CBK074696], in data set [1], the activity at 1 µM was 113%, the activity at 5 µM came out at 55.9% and the activity at 10 µM was found to be 68.2%. Besides, in data set [2], the activity at 1 µM stood at 147%, the activity at 5 µM is 120% and the activity at 10 µM came to 133%. In “in vitro”, the viability at 28.5 h, 1 µM was 104%; the viability at 28.5 h, 5 µM amounted to 99.5%; the viability at 28.5 h, 10 µM worked out at 102%.
On to `c1ccc(CNc2nnc(-c3ccccc3)s2)cc1` [CBK074928], for which, in data set [1], the activity at 1 µM was determined as 68.4%, the activity at 5 µM is 34.4% and the activity at 10 µM worked out at 26.9%. In addition, in data set [2], the activity at 1 µM was determined as 92.7%, the activity at 5 µM is 77.6% and the activity at 10 µM was 65.1%. Further, in “in vitro”, the viability at 28.5 h, 1 µM was 95%; the viability at 28.5 h, 5 µM amounted to 91.9%; the viability at 28.5 h, 10 µM is 104%.
On to `CC(C)Nc1nc2cc(Cl)c(Cl)cc2nc1Sc1cccc(O)c1` [CBK093732], for which, in data set [1], the activity at 1 µM stood at 129%, the activity at 5 µM came out at 50.2% and the activity at 10 µM is 35.1%. In data set [2], the activity at 1 µM turned out to be 124%, the activity at 5 µM is 94.8% and the activity at 10 µM was 55.6%. In addition, in the data set “in vitro”, the viability at 28.5 h, 1 µM was 95.8%; the viability at 28.5 h, 5 µM was 88%; the viability at 28.5 h, 10 µM amounted to 100%.
Regarding `CC(C)(N)CNC(=O)c1cc(C(C)(C)C)nn1Cc1ccc(Cl)cc1Cl` [CBK107296], in data set [1], the activity at 1 µM turned out to be 87.7%, the activity at 5 µM came to 54.2% and the activity at 10 µM came to 26.9%. Moreover, in data set [2], the activity at 1 µM was found to be 115%, the activity at 5 µM worked out at 76.6% and the activity at 10 µM was 36%. In addition, in “in vitro”, the viability at 28.5 h, 1 µM was 91.1%; the viability at 28.5 h, 5 µM turned out to be 95.2%; the viability at 28.5 h, 10 µM is 93.8%.
Regarding `COc1ccc2[nH]cc(CCNC(=O)c3ccc(Cl)c(Cl)c3)c2c1` [CBK115870], in data set [1], the activity at 1 µM is 109%, the activity at 5 µM stood at 78.8% and the activity at 10 µM turned out to be 40.9%. In data set [2], the activity at 1 µM came to 132%, the activity at 5 µM was 66.5% and the activity at 10 µM came to 33.8%. In addition, in “in vitro”, the viability at 28.5 h, 1 µM turned out to be 93.3%; the viability at 28.5 h, 5 µM worked out at 88.8%; the viability at 28.5 h, 10 µM amounted to 92.1%.
With `O=C(Nc1ccc2[nH]ccc2c1)c1ccccc1Nc1cccc(C(F)(F)F)c1` [CBK149583], in data set [1], the activity at 1 µM was 93.2%, the activity at 5 µM was determined as 59.8% and the activity at 10 µM worked out at 72.2%. Also, in data set [2], the activity at 1 µM is 119%, the activity at 5 µM was 90% and the activity at 10 µM amounted to 67.7%. In “in vitro”, the viability at 28.5 h, 1 µM is 118%; the viability at 28.5 h, 5 µM came out at 114%; the viability at 28.5 h, 10 µM is 112%.
On to `O=C(NCC1CC1)c1ccc(N2CCN(C(=O)c3ccccc3C(F)(F)F)CC2)nn1` [CBK153220], for which, in data set [1], the activity at 1 µM was 146%, the activity at 5 µM was determined as 79.1% and the activity at 10 µM worked out at 94.4%. For the same compound, in data set [2], the activity at 1 µM is 149%, the activity at 5 µM worked out at 123% and the activity at 10 µM was 138%. Besides, in the data set “in vitro”, the viability at 28.5 h, 1 µM was 104%; the viability at 28.5 h, 5 µM was found to be 93%; the viability at 28.5 h, 10 µM was 95.9%.
With `O=C(NCc1ccc([N+](=O)[O-])cc1)c1cccnc1NCc1ccc2c(c1)OCO2` [CBK153436], in data set [1], the activity at 1 µM amounted to 65.8%, the activity at 5 µM amounted to 65.9% and the activity at 10 µM amounted to 38.2%. For the same compound, in data set [2], the activity at 1 µM was 113%, the activity at 5 µM came to 68.2% and the activity at 10 µM is 25.1%. In addition, in the data set “in vitro”, the viability at 28.5 h, 1 µM was 103%; the viability at 28.5 h, 5 µM came out at 109%; the viability at 28.5 h, 10 µM came out at 109%.
Take `O=C(Nc1ncc(-c2ccccc2)s1)c1cccc([N+](=O)[O-])c1` [CBK157055]: in data set [1], the activity at 1 µM is 86.4%, the activity at 5 µM was determined as 88.1% and the activity at 10 µM stood at 56.9%. In addition, in data set [2], the activity at 1 µM turned out to be 110%, the activity at 5 µM was found to be 86.9% and the activity at 10 µM stood at 76.9%. For the same compound, in the data set “in vitro”, the viability at 28.5 h, 1 µM amounted to 114%; the viability at 28.5 h, 5 µM was 102%; the viability at 28.5 h, 10 µM was 114%.
Consider `O=C(NCCc1c[nH]c2ccc(Cl)cc12)c1ccc(Cl)cc1Cl` [CBK159750], for which, in data set [1], the activity at 1 µM is 91.9%, the activity at 5 µM came to 68.5% and the activity at 10 µM was 6.32%. Moreover, in data set [2], the activity at 1 µM came to 88%, the activity at 5 µM is 40.4% and the activity at 10 µM was determined as 8.46%. Further, in “in vitro”, the viability at 28.5 h, 1 µM is 95.1%; the viability at 28.5 h, 5 µM was found to be 93.9%; the viability at 28.5 h, 10 µM was found to be 98.4%.
For `Cc1ccc(CNC(=O)OCc2cccnc2C)o1` [CBK200131], in data set [1], the activity at 1 µM is 120%, the activity at 5 µM amounted to 61.9% and the activity at 10 µM stood at 91.2%. In addition, in data set [2], the activity at 1 µM came out at 120%, the activity at 5 µM stood at 111% and the activity at 10 µM was found to be 119%. In addition, in the data set “in vitro”, the viability at 28.5 h, 1 µM is 102%; the viability at 28.5 h, 5 µM is 104%; the viability at 28.5 h, 10 µM was 101%.
Turning to `Cn1cncc1C(=O)NCc1ccccc1` [CBK200199], in data set [1], the activity at 1 µM turned out to be 111%, the activity at 5 µM was 106% and the activity at 10 µM was 69.3%. Also, in data set [2], the activity at 1 µM was 95.8%, the activity at 5 µM came out at 109% and the activity at 10 µM came to 110%. For the same compound, in the data set “in vitro”, the viability at 28.5 h, 1 µM is 114%; the viability at 28.5 h, 5 µM came to 107%; the viability at 28.5 h, 10 µM was found to be 104%.
